Measured values taken from US20160115225A1, “Methods of Reducing Methylglyoxal (MGO) Modification of Recombinant Proteins in Cell Culture” (AbbVie Inc., priority 2014, published 2016).

Experiments:
[1] = test system: adalimumab producing cell line 2; assay: WCX-10 quantification of acidic species of adalimumab, bioreactor culture, cell line 2; format: cell-based; conditions: Example 4; 0.15 g/l 2DDG; control 29.8%
Experimental: Two adalimumab producing cell lines were employed in the studies covered here. Upon thaw, cells were cultured in their respective growth media in a combination of vented non-baffled shake flasks (Corning) on a shaker platform at 110 RPM (cell line 1) and 140 RPM (cell line 2) and 10 L or 20 L wave bags (GE). Cultures were propagated in a 35° C., 5% CO2 incubator for cell line 1 and 36° C., 5% CO2 incubator for cell line 2 to obtain the required number of cells to be able to initiate production stage cultures.
For the bioreactor (3 L Applikon) experiments (Examples 1, 2 and 3), 3 L, bioreactors (1.5 L working volume) were initiated at 35° C. (cell line 1) and 36° C. (cell line 2), 30% DO, 200 rpm, pH of 7.1. […]
This method is employed towards the quantification of the acidic species and other charge variants present in cell culture harvest samples. […]
Quantitation is based on the relative area percent of detected peaks. […]
(§1) The objective of this experiment was to further evaluate the control of MGO synthesis/MGO protein modification through reduced glucose consumption in a different cell line, Cell line 2. […] As described in Example 3, extracellular MGO quantification was performed for day 7, 8 and 9 for the samples below and percentage of acidic species were quantified using WCX-10 analysis post protein A of cell culture harvests.

[2] = test system: adalimumab producing cell line 2; assay: Extracellular MGO measurement in cell culture supernatant, cell line 2; format: cell-based; conditions: Example 4; for MGO concentration level: 0.15 g/l 2DDG
Experimental: About 20 ml of cell free supernatant were collected in some cases for measurement of extracellular MGO in the supernatant. For this, a 3,000 RPM 30 min centrifugation was performed to remove the cells.
Remove protein: After quick thawing covered with aluminum, cell culture samples (10 mL) were filtrated by a 3 kDa or 10 kDa membrane filter (Millipore, UFC900369) until the solution left inside the filter was around 1 mL, the flow through that was used for MGO analysis.
Derivative MGO: 750 uL of flow through, 75 uL of 1 M NaH2PO4 buffer (pH 8), 50 mM 1,2 diaminobenzene (Aldrich P/N: P23938), and 600 uL of MilliQ water were mixed well and incubated at 60° C. for 3 hours. After cooling down and centrifuging at 10000 rpm for 3 minutes, the sample solution was ready to be injected.
External Standards to Quantitate MGO: external standards were used to quantitate MGO in cell culture. Based on the following table, the standard solutions were prepared. The standard solutions were incubated at 60° C. for 3 hours. After cooling down, the standard solutions were analyzed to get an external standard curve. The concentration of MGO in culture was calculated based on the external standard curve. (MGO: CMP Biomedicals, P/N: 155558; GO: Fisher Scientifics, P/N: S25698). 10 mM and 1 mM MGO were diluted from the MGO and 1000 uM and 10 uM GO were diluted from the GO. The diluent was water.
HPLC Method: A reverse phase HPLC method was used for MGO analysis. The parameters are listed in the method information table and gradient table below.
The measured concentration based on external quantitation multiplied by two is the final MGO concentration.
as §1, with “2. There were two parts to this experiment. In one part, different levels of 2DDG were supplemented (0.05 g/l, 0.15 g/l) similar to the experimental design in Example 2. Prior to this experiment, a study was performed in shake flask culture to evaluate the dose effect of 2DDG on this cell line (data not shown). In the other part, different glucose profiles were maintained in the culture through the feedback control of glucose feed amounts.” for “2.”
The cells were grown to maximum viable cell densities (VCD) in the range of 10-12×10^6 cells/ml for the different conditions tested. […] Samples were then subsequently analyzed using Lys-C peptide mapping for quantification of MGO modification post protein A purification. […]

With `O=CC[C@@H](O)[C@H](O)[C@H](O)CO` [Test 2DDG, 2-Deoxy-D-Glucose] the “percentage of acidic species” value [1] was 27.2%, the MGO concentration profile ([2]; 0.05 g/l 2DDG, versus control) was “No significant difference” and the MGO concentration level ([2]; day 7, control 28 μM) was 14 µM. It also gave an MGO concentration level ([2]; day 8, control 64 μM) of 16 µM and an MGO concentration level ([2]; day not printed (third value, after day 7 and day 8), control 157 μM (day 9)) of 20 µM.
